Test results taken from patent US20230312578A1, “6H-INDOLO[2,3-B]QUINOXALINE DERIVATIVES USEFUL IN THERAPY” (Vironova Medical AB, priority 2020, published 2023).
Where two headings read alike, the source gives them in different places.

Assays:
Assay type in all cases: cell-based
[1] = system: CCRF-CEM; test: Human tumor cell line growth assay (SRB); settings: Leukemia, 48 h; for CC50: read-out: LC50 (the source's name)
[2] = system: HL-60(TB); test: Human tumor cell line growth assay (SRB); settings: Leukemia, 48 h; for CC50: read-out: LC50 (the source's name)
[3] = Human tumor cell line growth assay (SRB); settings: human, MOLT-4 cells (leukemia), MOLT-4, 48 h, read-out: LC50
[4] = system: MOLT-4; test: Human tumor cell line growth assay (SRB); settings: Homo sapiens; Leukemia, MOLT-4, 48 h
[5] = Human tumor cell line growth assay (SRB); settings: human, HOP-92 cells (NSCLC), HOP-92, 48 h
[6] = system: HOP-92; test: Human tumor cell line growth assay (SRB); settings: Homo sapiens; NSCLC, HOP-92, 48 h
[7] = Human tumor cell line growth assay (SRB); settings: human, NCI-H23 cells (NSCLC), NCI-H23, 48 h, read-out: LC50
[8] = system: NCI-H23; test: Human tumor cell line growth assay (SRB); settings: Homo sapiens; NSCLC, NCI-H23, 48 h
[9] = Human tumor cell line growth assay (SRB); settings: human, NCI-H522 cells (NSCLC), NCI-H522, 48 h
[10] = system: NCI-H522; test: Human tumor cell line growth assay (SRB); settings: Homo sapiens; NSCLC, NCI-H522, 48 h
[11] = Human tumor cell line growth assay (SRB); settings: human, HCT-116 cells (colon), HCT-116, 48 h, read-out: LC50
[12] = system: HCT-116; test: Human tumor cell line growth assay (SRB); settings: Homo sapiens; Colon, HCT-116, 48 h
[13] = Human tumor cell line growth assay (SRB); settings: human, HCT-15 cells (colon), HCT-15, 48 h
[14] = system: HCT-15; test: Human tumor cell line growth assay (SRB); settings: Homo sapiens; Colon, HCT-15, 48 h
[15] = Human tumor cell line growth assay (SRB); settings: human, KM12 cells (colon), KM12, 48 h, read-out: LC50
[16] = system: KM12; test: Human tumor cell line growth assay (SRB); settings: Homo sapiens; Colon, KM12, 48 h
[17] = Human tumor cell line growth assay (SRB); settings: human, SW-620 cells (colon), SW-620, 48 h
[18] = system: SW-620; test: Human tumor cell line growth assay (SRB); settings: Homo sapiens; Colon, SW-620, 48 h
[19] = Human tumor cell line growth assay (SRB); settings: human, LOX IMVI cells (melanoma), read-out: LC50
[20] = system: LOX IMVI; test: Human tumor cell line growth assay (SRB); settings: Homo sapiens, Melanoma, 48 h
[21] = Human tumor cell line growth assay (SRB); settings: human, MDA-MB-435 cells (melanoma), MDA-MB-435, 48 h, read-out: LC50
[22] = system: MDA-MB-435; test: Human tumor cell line growth assay (SRB); settings: Homo sapiens; Melanoma, MDA-MB-435, 48 h
[23] = Human tumor cell line growth assay (SRB); settings: human, SK-MEL-2 cells (melanoma), SK-MEL-2, 48 h, read-out: LC50
[24] = system: SK-MEL-2; test: Human tumor cell line growth assay (SRB); settings: Homo sapiens; Melanoma, SK-MEL-2, 48 h
[25] = Human tumor cell line growth assay (SRB); settings: human, SK-MEL-28 cells (melanoma), SK-MEL-28, 48 h, read-out: LC50
[26] = system: SK-MEL-28; test: Human tumor cell line growth assay (SRB); settings: Homo sapiens; Melanoma, SK-MEL-28, 48 h
[27] = Human tumor cell line growth assay (SRB); settings: human, UACC-62 cells (melanoma), UACC-62, 48 h, read-out: LC50
[28] = system: 786-0; test: Human tumor cell line growth assay (SRB); settings: Renal, 786-0, 48 h
[29] = system: A498; test: Human tumor cell line growth assay (SRB); settings: Renal, A498, 48 h; for CC50: read-out: LC50 (the source's name)
[30] = system: CAKI-1; test: Human tumor cell line growth assay (SRB); settings: Renal, CAKI-1, 48 h; for CC50: read-out: LC50 (the source's name)
[31] = system: RXF 393; test: Human tumor cell line growth assay (SRB); settings: Renal, RXF 393, 48 h; for CC50: read-out: LC50 (the source's name)
[32] = system: SN12C; test: Human tumor cell line growth assay (SRB); settings: Renal, 48 h; for CC50: read-out: LC50 (the source's name)
[33] = system: TK-10; test: Human tumor cell line growth assay (SRB); settings: Renal, TK-10, 48 h; for CC50: read-out: LC50 (the source's name)
[34] = system: MCF7; test: Human tumor cell line growth assay (SRB); settings: Breast, MCF7, 48 h; for CC50: read-out: LC50 (the source's name)
[35] = system: RPMI-8226; test: Human tumor cell line growth assay (SRB); settings: Homo sapiens; Leukemia, RPMI-8226, 48 h
[36] = Human tumor cell line growth assay (SRB); settings: human, SR cells (leukemia), read-out: LC50
[37] = system: SR; test: Human tumor cell line growth assay (SRB); settings: Homo sapiens, Leukemia, 48 h

## Cc1cc2nc3c4ccccc4n(CCN(C)C)c3nc2cc1C [B220, 2-(2,3-dimethyl-6H-indolo [2,3-b]quinoxalin-6-yl)-N,N-dimethylethanamine, reference compound]
[1]
  GI50: 1.99 µM
  CC50: > 100 µM
[2]
  GI50: 1.99 µM
  CC50: > 100 µM
[3]
  CC50 at 48 h: 95.1 µM
[4]
  GI50: 0.555 µM
[5]
  LC50 at 48 h: > 100 µM
[6]
  GI50: 1.36 µM
[7]
  CC50 at 48 h: 45.6 µM
[8]
  GI50: 1.87 µM
[9]
  LC50 at 48 h: > 100 µM
[10]
  GI50: 0.673 µM
[11]
  CC50 at 48 h: 44.5 µM
[12]
  GI50: 0.488 µM
[13]
  LC50 (concentration killing 50% of cells) at 48 h: > 100 µM
[14]
  GI50: 1.77 µM
[15]
  CC50 at 48 h: 38.6 µM
[16]
  GI50: 1.93 µM
[17]
  LC50 (50% lethal concentration) at 48 h: 35 µM
[18]
  GI50: 0.54 µM
[19]
  CC50 at 48 h: 18.9 µM
[20]
  GI50: 0.748 µM
[21]
  CC50 at 48 h: 7.49 µM
[22]
  GI50: 1.61 µM
[23]
  CC50 at 48 h: 7.49 µM
[24]
  GI50: 1.9 µM
[25]
  CC50 at 48 h: 9.45 µM
[26]
  GI50: 2.09 µM
[27]
  CC50 at 48 h: 5.58 µM
[28]
  GI50: 1.97 µM
  LC50: 62 µM
[29]
  GI50: 1.43 µM
  CC50: 5.74 µM
[30]
  GI50: 0.982 µM
  CC50: > 100 µM
[31]
  GI50: 1.56 µM
  CC50: 12.2 µM
[32]
  GI50: 1.08 µM
  CC50: > 100 µM
[33]
  GI50: 2.97 µM
  CC50: 71.4 µM
[34]
  GI50: 1.41 µM
  CC50: 34.8 µM

## Cc1cc2nc3c4cc(O)ccc4n(CCN(C)C)c3nc2cc1C [JBD-139, 6-(2-(dimethylamino)ethyl)-2,3-dimethyl-6H-indolo [2,3-b]quinoxalin-9-ol]
[1]
  GI50: 0.468 µM
  CC50: > 100 µM
[2]
  GI50: 0.356 µM
[3]
  CC50 at 48 h: > 100 µM
[4]
  GI50: 0.359 µM
[35]
  GI50: 0.366 µM
[36]
  CC50 at 48 h: > 100 µM
[37]
  GI50: 0.289 µM
[5]
  LC50 at 48 h: > 100 µM
[6]
  GI50: 0.246 µM
[8]
  GI50: 0.506 µM
[9]
  LC50 at 48 h: > 100 µM
[10]
  GI50: 0.39 µM
[12]
  GI50: 0.326 µM
[13]
  LC50 (concentration killing 50% of cells) at 48 h: > 100 µM
[14]
  GI50: 0.405 µM
[16]
  GI50: 0.512 µM
[18]
  GI50: 0.32 µM
[20]
  GI50: 0.338 µM
[22]
  GI50: 0.529 µM
[24]
  GI50: 1.1 µM
[26]
  GI50: 1.5 µM
[27]
  CC50 at 48 h: 6.37 µM
[28]
  GI50: 0.707 µM
[29]
  GI50: 0.948 µM
  CC50: 5.69 µM
[30]
  GI50: 0.259 µM
  CC50: 5.31 µM
[31]
  GI50: 0.671 µM
  CC50: 5.96 µM
[32]
  GI50: 0.397 µM
  CC50: > 100 µM
[33]
  GI50: 1.74 µM
  CC50: > 100 µM
[34]
  GI50: 0.351 µM
  CC50: > 100 µM

## Cc1cc2nc3c4cc([N+](=O)[O-])ccc4n(CCN(C)C)c3nc2cc1C [JBA-185, 2-(2,3-dimethyl-9-nitro-6H-indolo[2,3-b]quinoxalin-6-yl)-N,N-dimethylethanamine]
[1]
  GI50: 0.642 µM
  CC50: > 100 µM
[2]
  GI50: 0.914 µM
  CC50: > 100 µM
[3]
  CC50 at 48 h: > 100 µM
[4]
  GI50: 0.368 µM
[35]
  GI50: 0.389 µM
[36]
  CC50 at 48 h: > 100 µM
[37]
  GI50: 0.25 µM
[5]
  LC50 at 48 h: > 100 µM
[6]
  GI50: 0.642 µM
[7]
  CC50 at 48 h: 22.6 µM
[8]
  GI50: 0.492 µM
[9]
  LC50 at 48 h: > 100 µM
[10]
  GI50: 0.595 µM
[11]
  CC50 at 48 h: 94.2 µM
[12]
  GI50: 0.355 µM
[13]
  LC50 (concentration killing 50% of cells) at 48 h: > 100 µM
[14]
  GI50: 0.349 µM
[15]
  CC50 at 48 h: > 100 µM
[16]
  GI50: 0.567 µM
[17]
  LC50 (50% lethal concentration) at 48 h: > 100 µM
[18]
  GI50: 0.302 µM
[21]
  CC50 at 48 h: 4.5 µM
[22]
  GI50: 0.541 µM
[23]
  CC50 at 48 h: 9.02 µM
[24]
  GI50: 1.04 µM
[25]
  CC50 at 48 h: 5.65 µM
[26]
  GI50: 0.807 µM
[27]
  CC50 at 48 h: 5.78 µM
[28]
  GI50: 0.757 µM
  LC50: 9.56 µM
[29]
  GI50: 1.26 µM
  CC50: 5.5 µM
[30]
  GI50: 0.251 µM
  CC50: 7.48 µM
[31]
  GI50: 0.638 µM
  CC50: 5.5 µM
[32]
  GI50: 0.479 µM
  CC50: > 100 µM
[33]
  GI50: 0.371 µM
  CC50: > 100 µM
[34]
  GI50: 0.356 µM
  CC50: > 100 µM
